Assay results: the METLIN SMRT retention time set (Domingo-Almenara et al. 2019)

Experiment: gradient 5% acetonitrile 3 min, to 50% in 2 min, to 85% in 15 min, held 3 min, 100 µL/min
Conditions: column: Zorbax Extend-C18 2.1 x 50 mm; eluents: water / acetonitrile, 0.1% formic acid
In short: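 In both positive and negative ionization mode, a quadrupole time-of-flight mass spectrometer coupled to HPLC analyzed pure standards run in mixtures of ~100 molecules. The Zorbax Extend-C18 column (2.1 × 50 mm, 1.8 μm) was operated at 100 μL/min with water and acetonitrile, each containing 0.1% formic acid. The dead volume was 40 μL and the dwell volume 900 μL. Retention time came from adduct peaks that were computationally picked and individually inspected by hand.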

SMILES	RP-LC retention time
O=C(Nc1ccc(F)cc1F)C1CCCN(S(=O)(=O)Cc2ccccc2)C1 (configuration not stated)	933 s
Cc1noc([C@@H]2CN(C(=O)CC3CCCC3)C[C@H]2CO)n1	672 s
COc1ccc(-c2cn3c(CC(=O)NC4CCCCC4)csc3n2)cc1OC	702 s
COCCN1CCC(N2CCCN(C(=O)Cc3c[nH]c4ccccc34)CC2)C1=O (configuration not stated)	576 s
CCc1ccc(C2=C(C)C(N3CCCN(C(=O)NCCC(C)C)CC3)=NS2(=O)=O)cc1	926 s
CC(C)Cn1ccc2c(cc(C(=O)NCc3cccc(Br)c3)n2C)c1=O	901 s
O=C(NC1CCCCC1N1C(=O)CSC1=O)c1ccc[nH]c1=O (configuration not stated)	606 s
CC(C)CNC(=O)C1CCN(c2nc3ccc(-c4cccnc4)nc3s2)CC1	640 s
CCn1ccc(C(=O)N2CCCC2(CO)Cc2ccccc2)n1 (configuration not stated)	790 s
Cc1nn(-c2ccc(C(=O)N3CCOCC3)cc2)c2c1C(=O)CC(C)(C)C2	689 s
O=C(Nc1cnc(N2CCCC2)nc1)c1ccccc1Br	717 s
NC(=O)C1CCN(c2oc(-c3ccco3)nc2S(=O)(=O)c2ccccc2)CC1	652 s
Cc1ccc(CN2CCNCC2)cc1NC(=O)CNc1ccc(F)c(F)c1	639 s
O=C1CC(c2cc(Br)ccc2F)c2scc(S(=O)(=O)c3ccccc3)c2N1 (configuration not stated)	1010 s
COc1ccc2c(c1)c(CN1CC[C@H](CO)[C@H](N(C)C)C1)cn2C(C)C	591 s
COC(=O)Cn1c(-c2ccc(C)cc2)cnc1SCC(=O)Nc1nnc(C)s1	680 s
O=S1(=O)CCC(Nc2ncnc3c2cnn3-c2ccc(Cl)c(Cl)c2)C1 (configuration not stated)	903 s
CCCn1cc(S(=O)(=O)NCc2ccccc2F)c2cccnc21	861 s
Cc1cc(C)cc(NC(=O)C2CCN(C(=O)c3ncn4c3COC(c3ccccc3)C4)CC2)c1 (configuration not stated)	856 s
O=C(NCc1ccccc1F)C1CCN(C(=O)c2ncn3c2COC(c2ccc(F)cc2)C3)CC1 (configuration not stated)	736 s
Nc1cc(C2CCN(S(=O)(=O)c3cccc(Br)c3)CC2)no1	824 s
CC(C)(C)NC(=O)CSc1nc(-c2cccs2)cc(C(F)(F)F)c1C#N	991 s
COc1ccc(C2C(C(=O)OC(C)C)=C(C)NC3=C2C(=O)CCC3)c(OC)c1OC (configuration not stated)	778 s
COc1ccc2c(c1)C1(CCN(C(=O)Nc3cccc(C)c3)C1)C(=O)N2C (configuration not stated)	809 s
CCC(=O)N1CCc2cc(N3CC(C(=O)Nc4ccccc4F)CC3=O)ccc21 (configuration not stated)	741 s
Cc1cc(C)n(-c2ccnc(N3CCC(C(=O)NCC(C)C)CC3)n2)n1	768 s

SMILES	RP-LC retention time
O=C(Nc1cc(Cl)ccc1F)C1CCCN(c2nnc3ccccn23)C1 (configuration not stated)	649 s
CCC(=O)N1CCC(Oc2nccnc2N(C)C)C1 (configuration not stated)	616 s
Cc1csc(-c2cc(S(=O)(=O)NCC3CC3)cn2CC(=O)N2CCCCC2)n1	905 s
O=C(CCC1CCCN(S(=O)(=O)c2cccc(F)c2)C1)NCC1CC1 (configuration not stated)	822 s
CCOc1ccc(S(=O)(=O)N2CCC(C(=O)NCC3CCCO3)CC2)cc1 (configuration not stated)	750 s
COc1ccc(OC)c(CNC(=O)NC2COc3ccc(OC)cc3C2)c1 (configuration not stated)	810 s
O=C(c1ccc(Cl)cc1)N1CCc2sc(C(=O)N3CCCC3)cc2C1	792 s
Cc1ccccc1Cn1ccnc1C(N)=O	695 s
CCOc1ccc(S(=O)(=O)N2CCCC(C(=O)NCCc3ccc(OC)c(OC)c3)C2)cc1 (configuration not stated)	884 s
O=C(NC1CCCCC1)c1csc(-c2ccc(N3CCCC3)nc2)n1	739 s
CCOC(=O)C(C(=O)N1CCN(C)CC1)C1CCCCC1 (configuration not stated)	629 s
CCc1nnc(-c2cc(C)n(CC(=O)Nc3cc(C)cc(C)c3)c2C)o1	887 s
Cc1nc(-c2ccc3c(c2)n(CC(=O)N2CCC4(CC2)OCCO4)c(=O)n3C(C)C)no1	720 s
COc1cc(NC(=O)N2CCC(CN3CCc4ccccc4C3)CC2)cc(OC)c1OC	612 s
O=C(c1ccc(N2C[C@H]3C[C@H](C2)[C@H]2CCCC(=O)N2C3)nc1)N1CCN(c2ncccn2)CC1	567 s
Nc1cc(C2CCN(C(=O)Nc3cccc(Cl)c3F)CC2)no1	676 s
Cc1ccc2c(c1)c1ncn(Cc3nc(C(C)C)no3)c(=O)c1n2CC(=O)N1CCCC1	818 s
Cn1c(=O)c2c(nc(/C=C/c3cccc(Cl)c3)n2C)n(C)c1=O	1040 s
O=C(c1cc2c(s1)CCC(C(=O)N1CCN(C3CCCC3)CC1)C2)N1CCCC1 (configuration not stated)	606 s
Cc1ccccc1NC(=O)C1CCN(S(=O)(=O)c2c(C)[nH]c(C)c2C(=O)N2CCCC2)CC1	675 s
CN(C)c1nccnc1OC1CCN(C(=O)C2CCOCC2)C1 (configuration not stated)	605 s
COc1ccc(OC)c(CNC(=O)CN2CCN(Cc3ccc(F)cc3)C2=O)c1	787 s
Cc1ccc(CSc2nnc3c(S(=O)(=O)N4CCCCC4)cccn23)cc1	928 s
Cc1cc(C)cc(C(=O)N2CCC3(CC2)NC(=O)c2ccccc2N3C)c1	804 s
CN(Cc1ccco1)C(=O)c1ccc(-n2cc(CNC(=O)C3CCC3)cn2)cc1	672 s

The next lines start with the values.

RP-LC retention time	SMILES
970 s	c1ccc(-c2nc3nc4c(c(Nc5ccc6c(c5)OCCO6)n3n2)CCCC4)cc1
653 s	CN1CCN(c2ccc(NC(=O)c3ccc(Br)cc3)c(C(=O)O)c2)CC1
816 s	COc1ccc(-c2nnc(COc3cccc(NC(=O)CNC(=O)Cc4ccccc4)c3)o2)cc1
621 s	COC(=O)c1ccc(NC(=O)CN2CCC(c3nc(-c4cccs4)no3)CC2)cc1
881 s	COC(=O)c1ccc(C2CC(=O)NC3=C2C(=O)CC(c2ccccc2Cl)C3)cc1 (configuration not stated)
680 s	COc1ccc(OC)c(CNC(=O)c2ccc3[nH]c4c(c3c2)CN(C(C)=O)CC4)c1
1060 s	COC(=O)c1ccc2c(=O)n(Cc3ccc(F)cc3)c(N3CCCC3)nc2c1
953 s	CCOC(=O)c1ccc(OC(=O)c2cn(C)c(=O)c3ccccc23)cc1
868 s	O=C(Cn1ccn2nc(-c3ccccc3)c(CO)c2c1=O)Nc1cccc(Br)c1
994 s	Cc1cc(C)cc(NC(=O)c2cccn2Cc2noc(C3CC3)n2)c1
904 s	COc1ccc(S(=O)(=O)NCc2ccc3c(c2)CCN3C(=O)c2ccccc2)cc1
990 s	Cc1ccc(-c2ccc(=O)n(Cc3nc(-c4cccs4)no3)n2)cc1
842 s	Cc1cc(C)nc(Nc2nc(C(=O)NCCOc3ccc(F)cc3)cs2)n1
763 s	CC(=O)Nc1cccc(-c2nc(-c3cccc(-c4ccn[nH]4)c3)no2)c1
625 s	O=C(Nc1ccc2nc(N3CCN(C4CCCCC4)CC3)cc(C(=O)O)c2c1)c1ccc(F)cc1
640 s	CCc1nc2cc3c(cc2n1CC(=O)Nc1ccc(OC)cc1)OCCO3
769 s	Cc1cc(-n2c(C)nc3ccccc3c2=O)ccc1NC(=O)Cc1cccs1
779 s	O=C(Cn1c(=O)c2cc(C3CC3)nn2c2ncccc21)Nc1ccc(F)cc1F

RP-LC retention time	SMILES
671 s	O=C(NCc1cc(F)ccc1F)c1ccc2ncnc(N3CCCCC3)c2c1
606 s	COc1ccccc1C(CNC(=O)c1cc(=O)c2ccccc2o1)N(C)C (configuration not stated)
933 s	Cc1cc(=O)n2nc(-c3ccc(Cl)cc3)nc2n1CC(=O)N1CCN(c2ccc(F)cc2)CC1
1020 s	COc1cccc(-n2nc(-c3nc(-c4ccccn4)no3)c3ccccc3c2=O)c1
952 s	COc1cc(C(C[N+](=O)[O-])c2c(-c3ccccc3)[nH]c3ccccc23)cc(OC)c1OC (configuration not stated)
879 s	O=c1c(=O)n(Cc2nc(-c3ccc4c(c3)OCO4)no2)ccn1Cc1ccc(Cl)cc1
844 s	COc1ccc(NS(=O)(=O)c2ccc3c(c2)C(=O)N(C)c2ncccc2O3)cc1
899 s	O=C(Cn1cccc1-c1nc(-c2ccccc2)cs1)N1CCN(C(=O)c2ccco2)CC1
702 s	O=C(Nc1ccc(-c2cn3cccnc3n2)cc1)c1cccc(Br)c1
580 s	COc1ccc(-c2nc(N3CCN(c4ccccn4)CC3)c3ccccc3n2)cc1
1070 s	Cc1ccc(Cl)cc1NC(=O)Cn1cnc2c(sc3nc(-c4ccccc4)ccc32)c1=O
739 s	Cn1cnc2ccc(-c3noc(CNS(=O)(=O)c4ccccc4)n3)cc21
1070 s	CCSc1nc2ccc(NS(=O)(=O)c3ccc(F)c(F)c3)cc2s1
744 s	CN(C)c1ccc(-c2nc3ccc(Cl)cn3c2Nc2ccc3c(c2)OCCO3)cc1
784 s	COc1ccc(S(=O)(=O)N2CCC(c3noc(-c4cnccn4)n3)C2)cc1 (configuration not stated)
1020 s	C[C@H]1CN(C(=O)c2ccccc2F)C[C@@H]1c1nc(-c2ccccc2)no1
941 s	CCCN1C(=O)COc2ccc(-c3noc(C4CC(=O)N(c5ccc(C)cc5)C4)n3)cc21 (configuration not stated)
699 s	COc1ccc(NS(=O)(=O)c2cc(-c3[nH]ncc3C(=O)N(C)C)oc2C)cc1Cl
